Laboratory results as given in ChEMBL document CHEMBL3885861, “Open TG-GATES”.

Organism: Rattus norvegicus
Assay: Open TG-GATES - Regimen: Daily Repeat
Assay type: toxicity, organism-based, Sprague-Dawley
Set-up: regimen Daily Repeat, gender Male, age 6 weeks
Conditions: in vivo, po, route gavage; for APTT / Bas / Eos / Fbg / Hb / Ht / Lym / MCH / MCHC / MCV / Mono / Neu / PT / Plat / RBC / Ret / WBC: tissue Blood; for KIDNEY_L / KIDNEY_R / KIDNEY_TOTAL: tissue Kidney; for LIVER: tissue Liver; for A/G / ALP / ALT / AST / BUN / CRE / Ca / Cl / DBIL / GLC / IP / K / LDH / Na / PL / RALB / TBIL / TC / TG / TP / gamma-GTP: tissue Plasma
[1] = 0 mg/kg, 72 h, dose level Control, time 3 day
[2] = 0 mg/kg, […], dose level Control, time 7 day
[3] = 0 mg/kg, […], dose level Control, time 14 day
[4] = 0 mg/kg, […], dose level Control, time 28 day
[5] = 15 mg/kg, 72 h, dose level Low, time 3 day
[6] = 15 mg/kg, […], dose level Low, time 7 day
[7] = 15 mg/kg, […], dose level Low, time 14 day
[8] = 15 mg/kg, […], dose level Low, time 28 day

## CN(C)CCC=C1c2ccccc2CCc2ccccc21 [AMITRIPTYLINE]
[1]
  TERMINAL_BW: 226.6 g
  APTT: 14.9 s
  Bas: 0%
  Eos: 1.2%
  Fbg: 287.4 mg/dL
  Hb: 13 g/dL
  Ht: 39.9%
  Lym: 71.4%
  MCH: 21.3 pg
  MCHC: 32.7%
  MCV: 65.1 fL
  Mono: 3.4%
  Neu: 23.4%
  PT: 15.5 s
  Plat: 116.7 x10_4/uL
  RBC: 613.4 x10_4/ul
  Ret: 7.7%
  WBC: 71.8 x10_2/uL
  KIDNEY_L: 0.9 g
  KIDNEY_R: 0.9 g
  KIDNEY_TOTAL: 1.8 g
  LIVER: 10.7 g
  A/G: 0.8
  ALP: 1976.4 IU/L
  ALT: 54.6 IU/L
  AST: 74.2 IU/L
  BUN: 16.4 mg/dL
  CRE: 0.2 mg/dL
  Ca: 11.2 mg/dL
  Cl: 105.6 meq/L
  DBIL: 0.02 mg/dL
  GLC: 179.4 mg/dL
  IP: 7.9 mg/dL
  K: 4.1 meq/L
  LDH: 81 IU/L
  Na: 143.8 meq/L
  PL: 162.2 mg/dL
  RALB: 2.7 g/dL
  TBIL: 0.054 mg/dL
  TC: 83.2 mg/dL
  TG: 121.8 mg/dL
  TP: 5.9 g/dL
  gamma-GTP: 0.6 IU/L
[2]
  TERMINAL_BW: 259.7 g
  APTT: 16.5 s
  Bas: 0.6%
  Eos: 1%
  Fbg: 302.6 mg/dL
  Hb: 13.5 g/dL
  Ht: 40.7%
  Lym: 78.8%
  MCH: 20.8 pg
  MCHC: 33.1%
  MCV: 62.8 fL
  Mono: 2.8%
  Neu: 16.4%
  PT: 15.2 s
  Plat: 109.9 x10_4/uL
  RBC: 648.8 x10_4/ul
  Ret: 5.7%
  WBC: 86.3 x10_2/uL
  KIDNEY_L: 1 g
  KIDNEY_R: 1 g
  KIDNEY_TOTAL: 2 g
  LIVER: 11.9 g
  A/G: 0.8
  ALP: 1482.8 IU/L
  ALT: 40.8 IU/L
  AST: 64.2 IU/L
  BUN: 16 mg/dL
  CRE: 0.2 mg/dL
  Ca: 10.9 mg/dL
  Cl: 106.4 meq/L
  DBIL: 0.014 mg/dL
  GLC: 185.8 mg/dL
  IP: 7.5 mg/dL
  K: 3.9 meq/L
  LDH: 56.4 IU/L
  Na: 143.8 meq/L
  PL: 165.8 mg/dL
  RALB: 2.6 g/dL
  TBIL: 0.052 mg/dL
  TC: 81.2 mg/dL
  TG: 131.2 mg/dL
  TP: 5.8 g/dL
  gamma-GTP: 0.6 IU/L
[3]
  TERMINAL_BW: 318.6 g
  APTT: 17.3 s
  Bas: 0%
  Eos: 1%
  Fbg: 294.4 mg/dL
  Hb: 13.8 g/dL
  Ht: 41.5%
  Lym: 76.8%
  MCH: 20.9 pg
  MCHC: 33.3%
  MCV: 62.5 fL
  Mono: 2.2%
  Neu: 19%
  PT: 15.6 s
  Plat: 127.9 x10_4/uL
  RBC: 664.4 x10_4/ul
  Ret: 4.7%
  WBC: 94.5 x10_2/uL
  KIDNEY_L: 1.2 g
  KIDNEY_R: 1.2 g
  KIDNEY_TOTAL: 2.5 g
  LIVER: 14 g
  A/G: 0.8
  ALP: 1703.4 IU/L
  ALT: 41.8 IU/L
  AST: 68.6 IU/L
  BUN: 17.6 mg/dL
  CRE: 0.2 mg/dL
  Ca: 10.9 mg/dL
  Cl: 106 meq/L
  DBIL: 0.024 mg/dL
  GLC: 191.8 mg/dL
  IP: 6.3 mg/dL
  K: 4.3 meq/L
  LDH: 70.8 IU/L
  Na: 142.4 meq/L
  PL: 157 mg/dL
  RALB: 2.7 g/dL
  TBIL: 0.046 mg/dL
  TC: 71.6 mg/dL
  TG: 128.8 mg/dL
  TP: 6.1 g/dL
  gamma-GTP: 0.4 IU/L
[4]
  TERMINAL_BW: 406.1 g
  APTT: 18.5 s
  Bas: 0.2%
  Eos: 1%
  Fbg: 253 mg/dL
  Hb: 14.9 g/dL
  Ht: 43.8%
  Lym: 77.2%
  MCH: 19.6 pg
  MCHC: 33.9%
  MCV: 57.7 fL
  Mono: 2.6%
  Neu: 18.2%
  PT: 16.2 s
  Plat: 104.1 x10_4/uL
  RBC: 760.8 x10_4/ul
  Ret: 2.5%
  WBC: 120.5 x10_2/uL
  KIDNEY_L: 1.4 g
  KIDNEY_R: 1.4 g
  KIDNEY_TOTAL: 2.8 g
  LIVER: 17 g
  A/G: 0.8
  ALP: 1151.8 IU/L
  ALT: 47.2 IU/L
  AST: 83 IU/L
  BUN: 17.6 mg/dL
  CRE: 0.2 mg/dL
  Ca: 10.5 mg/dL
  Cl: 104.8 meq/L
  DBIL: 0.02 mg/dL
  GLC: 198.6 mg/dL
  IP: 6.3 mg/dL
  K: 3.7 meq/L
  LDH: 116.2 IU/L
  Na: 143 meq/L
  PL: 138 mg/dL
  RALB: 2.8 g/dL
  TBIL: 0.058 mg/dL
  TC: 62 mg/dL
  TG: 134.8 mg/dL
  TP: 6.2 g/dL
  gamma-GTP: 0.4 IU/L
[5]
  TERMINAL_BW: 224.1 g
  APTT: 16 s
  Bas: 0%
  Eos: 1%
  Fbg: 268.6 mg/dL
  Hb: 13.1 g/dL
  Ht: 40%
  Lym: 76.8%
  MCH: 20.3 pg
  MCHC: 32.7%
  MCV: 62 fL
  Mono: 3%
  Neu: 18.2%
  PT: 16 s
  Plat: 118.8 x10_4/uL
  RBC: 645.4 x10_4/ul
  Ret: 7.3%
  WBC: 97.8 x10_2/uL
  KIDNEY_L: 0.9 g
  KIDNEY_R: 0.9 g
  KIDNEY_TOTAL: 1.8 g
  LIVER: 10.4 g
  A/G: 0.8
  ALP: 1844.8 IU/L
  ALT: 55.8 IU/L
  AST: 74.6 IU/L
  BUN: 14.2 mg/dL
  CRE: 0.2 mg/dL
  Ca: 11 mg/dL
  Cl: 105.6 meq/L
  DBIL: 0.022 mg/dL
  GLC: 185.2 mg/dL
  IP: 7.7 mg/dL
  K: 4 meq/L
  LDH: 74.6 IU/L
  Na: 143.6 meq/L
  PL: 150.2 mg/dL
  RALB: 2.7 g/dL
  TBIL: 0.06 mg/dL
  TC: 76.2 mg/dL
  TG: 106 mg/dL
  TP: 5.8 g/dL
  gamma-GTP: 0.8 IU/L
[6]
  TERMINAL_BW: 265.9 g
  APTT: 15.5 s
  Bas: 0%
  Eos: 1.2%
  Fbg: 292 mg/dL
  Hb: 13.6 g/dL
  Ht: 41.4%
  Lym: 79.6%
  MCH: 20.6 pg
  MCHC: 32.7%
  MCV: 62.8 fL
  Mono: 3%
  Neu: 15.6%
  PT: 15.1 s
  Plat: 116.5 x10_4/uL
  RBC: 659 x10_4/ul
  Ret: 6.3%
  WBC: 93.6 x10_2/uL
  KIDNEY_L: 1.1 g
  KIDNEY_R: 1.1 g
  KIDNEY_TOTAL: 2.1 g
  LIVER: 12.7 g
  A/G: 0.8
  ALP: 1784.2 IU/L
  ALT: 44.8 IU/L
  AST: 70.6 IU/L
  BUN: 18.4 mg/dL
  CRE: 0.2 mg/dL
  Ca: 10.9 mg/dL
  Cl: 105.6 meq/L
  DBIL: 0.018 mg/dL
  GLC: 187.6 mg/dL
  IP: 7.7 mg/dL
  K: 4.1 meq/L
  LDH: 85.8 IU/L
  Na: 143.8 meq/L
  PL: 163.8 mg/dL
  RALB: 2.7 g/dL
  TBIL: 0.046 mg/dL
  TC: 78 mg/dL
  TG: 126 mg/dL
  TP: 5.9 g/dL
  gamma-GTP: 0.8 IU/L
[7]
  TERMINAL_BW: 314.4 g
  APTT: 17.3 s
  Bas: 0.4%
  Eos: 1%
  Fbg: 289.6 mg/dL
  Hb: 14 g/dL
  Ht: 42.2%
  Lym: 76%
  MCH: 20 pg
  MCHC: 33.2%
  MCV: 60.3 fL
  Mono: 2.2%
  Neu: 20%
  PT: 16 s
  Plat: 118.1 x10_4/uL
  RBC: 698.6 x10_4/ul
  Ret: 4.4%
  WBC: 115.2 x10_2/uL
  KIDNEY_L: 1.2 g
  KIDNEY_R: 1.2 g
  KIDNEY_TOTAL: 2.4 g
  LIVER: 13.8 g
  A/G: 0.8
  ALP: 1397.6 IU/L
  ALT: 44 IU/L
  AST: 69 IU/L
  BUN: 16.8 mg/dL
  CRE: 0.2 mg/dL
  Ca: 10.9 mg/dL
  Cl: 105.8 meq/L
  DBIL: 0.018 mg/dL
  GLC: 196 mg/dL
  IP: 6.8 mg/dL
  K: 4 meq/L
  LDH: 65 IU/L
  Na: 142.8 meq/L
  PL: 154 mg/dL
  RALB: 2.7 g/dL
  TBIL: 0.05 mg/dL
  TC: 70 mg/dL
  TG: 156.2 mg/dL
  TP: 6.1 g/dL
  gamma-GTP: 0.4 IU/L
[8]
  TERMINAL_BW: 400.5 g
  APTT: 21.5 s
  Bas: 0.2%
  Eos: 1.4%
  Fbg: 286.6 mg/dL
  Hb: 15.5 g/dL
  Ht: 45.4%
  Lym: 81.4%
  MCH: 19.3 pg
  MCHC: 34.1%
  MCV: 56.6 fL
  Mono: 2%
  Neu: 14.2%
  PT: 16.1 s
  Plat: 97.5 x10_4/uL
  RBC: 802.8 x10_4/ul
  Ret: 2.5%
  WBC: 104.9 x10_2/uL
  KIDNEY_L: 1.4 g
  KIDNEY_R: 1.4 g
  KIDNEY_TOTAL: 2.8 g
  LIVER: 16.1 g
  A/G: 0.8
  ALP: 1354.6 IU/L
  ALT: 36 IU/L
  AST: 61.2 IU/L
  BUN: 17.6 mg/dL
  CRE: 0.2 mg/dL
  Ca: 10.6 mg/dL
  Cl: 103.8 meq/L
  DBIL: 0.018 mg/dL
  GLC: 180.6 mg/dL
  IP: 6.2 mg/dL
  K: 3.8 meq/L
  LDH: 55.4 IU/L
  Na: 142.8 meq/L
  PL: 156.2 mg/dL
  RALB: 2.8 g/dL
  TBIL: 0.056 mg/dL
  TC: 77 mg/dL
  TG: 130.4 mg/dL
  TP: 6.3 g/dL
  gamma-GTP: 0 IU/L
